PMC8398714, “Synthesis and Evaluation of Biological Activities of Bis(spiropyrazolone)cyclopropanes: A Potential Application against Leishmaniasis” (Molecules, 2021)
Where two headings read alike, the source gives them in different places.

Assays:
PC-3 = experiment: MTS cell viability assay on PC-3 cells; type: cell-based; details: Homo sapiens, 48 h; for inhibition at 100 µM: Dox 1 µM, mean ± SEM, NA = no activity, read-out: Percentage (%) of inhibition, PC-3; for IC50: 15-150 µM, mean ± SEM of triplicates
Protocol: (§1) Five tumor human cancer cell lines—cerebral astrocytoma (D-384), grade IV prostatic adenocarcinoma (PC-3), mammary adenocarcinoma (MCF-7), human colon carcinoma (RKO) and lung carcinoma (A-549)—along with one immortalized hamster cell line (CHO K-1) were used. The cells PC-3, MCF-7 and RKO were cultured in RPMI-1640, D-384 on DMEM and CHO K-1 on HAM F-12 medium supplemented with 10% fetal bovine serum (FBS, Invitrogen, Karlsruhe, Germany), 1% antibiotic-antimitotic solution (100 units/mL penicillin G, 100 µg/mL streptomycin, and 0.25 µg/mL amphotericin B, Gibco, Grand Island, NY, USA), and 1% L-glutamine (2 mM, Gibco). The cells were incubated at 37 °C in a 5% CO2 atmosphere. The viable cells were counted using the trypan blue exclusion method in a hemocytometer.
(§2) The MTS (5-[3-(carboxymethoxy)phenyl]-3-(4,5-dimethyl-2-thiazolyl)-2-(4-sulfo- phenyl)-2H-tetrazolium inner salt) cell viability assay was used to assess the inhibitory effects of the extracts on the survival of human cancer cell lines. A total of 3–5 × 10^3 cells/well were seeded into 96-well plates and were allowed to adhere for 24 h. […] Each concentration/assay was performed three times. Dimethyl sulfoxide (DMSO) was used as a negative control at a final concentration of 0.1% v/v, and 1 µM Doxorubicin was used as a positive control. The cells were incubated with the treatments for 48 h, after which 20 µL MTS (5 mg/mL, Aqueous One Solution Reagent, Gibco) was added and further incubated for 4 h at 37 °C. The absorbance was measured at 570 nm. The data obtained with cells treated with DMSO were defined to represent 100% viability.

CHO-K1 cells = type: cell-based, hamster
Protocol: Cells were mixed with 150 μL low-melting-point agarose 1% (LMP, Promega, Madison, WI, USA) and added to microscope slides previously prepared with normal-melting-point agarose 1% (NMP, Invitrogen, Carlsbad, CA, USA). A third LMP agarose layer (150 µL) was added. The slides were immersed in a cooled lysing solution (pH 10) with 10% DMSO, 1% Triton X-100 (Sigma Aldrich, Saint Louis, MO, USA), 2.5 M NaCl (Loba Chemie, Mumbai, India), 100 mM EDTA and 10 mM Tris (Invitrogen, Carlsbad, CA, USA) for 12 h at 4 °C. All steps after lysis were performed under darkness or yellow light to prevent additional DNA damage. The slides were immersed for 20 min in an electrophoresis buffer solution (pH 13) with NaOH 300 mM (Fisher Scientific, Waltham, MA, USA) and EDTA 1 mM (Invitrogen, Carlsbad, CA, USA) to allow for DNA unwinding. Electrophoresis was later performed at 25 V and 300 mA for 20 min. Slides were then sprayed with a neutralization buffer (pH 7.5) 0.4 M Tris (Sigma Aldrich, Saint Louis, MO, USA). Ethidium bromide (60 µL) was added to each slide, and a cover glass was placed on the gel. The DNA migration was analyzed using a ZEISS-Axioskop 2 plus microscope with fluorescence (40×) by scoring 100 cells per slide in duplicate. After that, the tail moment parameter was analyzed by a Comet Assay IV software (Perceptive Instruments Ltd., Bury St Edmunds, Suffolk, UK).

MCF-7 = experiment: MTS cell viability assay on MCF-7 cells; type: cell-based; details: Homo sapiens, MCF7, 48 h, Dox 1 µM, mean ± SEM, NA = no activity, read-out: Percentage (%) of inhibition, MCF-7
Protocol: as §1, §2

[1] = test system: promastigotes of Leishmania mexicana; experiment: Leishmanicidal activity, MTT assay on promastigotes; type: cell-based; details: for SI (Selectivity Index) = Citotoxic activity/Leishmanicidal activity: CC50 RAW / IC50 L. mexicana; for IC50: Leishmania mexicana
Protocol: The leishmanicidal activity of all compounds was evaluated by measuring promastigotes’ mitochondrial activity using MTT colorimetric assay as described previously. In this study, promastigotes from Leishmania mexicana were used. The species were confirmed by amplifying and sequencing cytochrome b gene. Promastigotes were cultured at 25 °C in Schneider’s Drosophila Medium (Gibco, Invitrogen, Carlsbad, CA, USA) supplemented with 10% fetal bovine serum (Eurobio, Les Ulis, France). The medium was renewed every third day. Parasite density was determined by counting the cells using a Neubauer chamber.
Into each well of a 96-well plate were dispensed 1 × 10^6 parasites/well. A stock solution of the compounds was prepared in DMSO (Sigma Aldrich, Saint Louis, MO, USA), and serial dilutions were added to the parasite suspension, leading to concentrations ranging from 100 to 0.001 µM, keeping the solvent concentration at 0.5%. The final volume was 200 µL for each well and triplicate conditions were carried out. Amphotericin B (Gibco) treatment (1 µM) untreated parasites and DMSO 0.5% were used as positive and negative controls, respectively. After exposure to the compounds for 48 h in culture medium, 20 µL of a solution of 5 mg/mL MTT dissolved in PBS were added to each well. The plate was incubated at 25 °C for 2 h in darkness. The plate was then centrifuged at 4400 rpm for 10 min and the culture medium was then aspirated; 50 µL of DMSO were added into each well to solubilize the formazan crystals and the plate was shaken for 5 min and then it was measured by recording changes in absorbance at 570 nm using a microplate reader Cytation 5 (BioTek) spectrophotometer. A reference wavelength of 630 nm was used as background subtraction. Optical densities were analyzed because the quantity of formazan is directly proportional to the number of viable parasites. Data were analyzed with the statistical software GraphPad Prism 7.02 (GraphPad Software, Corp.).

CHO-K1 = experiment: MTS cell viability assay on immortalized CHO-K1 cells; type: cell-based, hamster; details: 48 h, Dox 1 µM, mean ± SEM, NA = no activity, read-out: Percentage (%) of inhibition, CHO-K1
Protocol: as §1, §2

[2] = read-out: IC50 original values, x.1 (Mean)
[3] = L. mexicana promastigotes, 48 h, MTT, read-out: Leishmanicidal Activity IC50

Row | SMILES | inhibition at 100 µM (PC-3) | Genotoxic effect in comet assay versus DMSO control (CHO-K1 cells) | inhibition at 100 µM (MCF-7) | SI (Selectivity Index) = Citotoxic activity/Leishmanicidal activity [1] | IC50 [1, 2] | IC50 [1, 3] | inhibition at 100 µM (CHO-K1) | IC50 (PC-3)
1 | CC1=NN(c2ccccc2)C(=O)[C@@]12C(c1ccccc1)[C@@]21C(=O)N(c2ccccc2)N=C1C (relative stereo) [4b, (5R*,6R*)-4,10-Dimethyl-2,8,11-triphenyl-2,3,8,9-tetraazadispiro[4.0.4.1]undeca-3,9-diene-1,7-dione] | 17.6 ± 2.83% | did not show differences with respect to the control of DMSO | 7.87 ± 2.92% | 21.3 | 158 nM | 160 nM | 5.76 ± 3.08% | 
2 | CC1=NN(c2ccccc2)C(=O)[C@@]12C(c1ccccc1[N+](=O)[O-])[C@@]21C(=O)N(c2ccccc2)N=C1C (relative stereo) [4c, (5R*,6R*)-11-(2-Nitrophenyl)-4,10-dimethyl-2,8-diphenyl-2,3,8,9-tetraazadispiro[4.0.4.1]undeca-3,9-diene-1,7-dione] | 11 ± 3.5% |  | 16.7 ± 5.36% | 15.3 | 150 nM | 150 ± 40 nM | 2.62 ± 2.2% | 
3 | CC1=NN(c2ccccc2)C(=O)[C@@]12C(c1cccc([N+](=O)[O-])c1)[C@@]21C(=O)N(c2ccccc2)N=C1C (relative stereo) [4d, (5R*,6R*)-11-(3-Nitrophenyl)-4,10-dimethyl-2,8-diphenyl-2,3,8,9-tetraazadispiro[4.0.4.1]undeca-3,9-diene-1,7-dione] | 46.1 ± 1.91% | most significant | 39.4 ± 2.29% | 26.0 | 148 nM | 150 ± 20 nM | 4.4 ± 0.72% | 90900 ± 2560 nM
4 | COc1ccc(C2[C@@]3(C(=O)N(c4ccccc4)N=C3C)[C@]23C(=O)N(c2ccccc2)N=C3C)cc1 (relative stereo) [4e, (5R*,6R*)-11-(4-Methoxyphenyl)-4,10-dimethyl-2,8-diphenyl-2,3,8,9-tetraazadispiro[4.0.4.1]undeca-3,9-diene-1,7-dione] | 17.9 ± 3.4% |  | 4.47 ± 3.48% | 4.9 | 1480 nM | 1480 ± 250 nM |  | 
5 | COc1ccccc1C1[C@@]2(C(=O)N(c3ccccc3)N=C2C)[C@]12C(=O)N(c1ccccc1)N=C2C (relative stereo) [4f, (5R*,6R*)-11-(2-Methoxyphenyl)-4,10-dimethyl-2,8-diphenyl-2,3,8,9-tetraazadispiro[4.0.4.1]undeca-3,9-diene-1,7-dione] | 28.3 ± 2.56% |  |  | 5.7 | 2230 nM | 2230 ± 70 nM | 2.79 ± 1.49% | 
6 | CC1=NN(c2ccccc2)C(=O)[C@@]12C(c1ccc([N+](=O)[O-])cc1)[C@@]21C(=O)N(c2ccccc2)N=C1C (relative stereo) [4k, (5R*,6R*)-11-(4-Nitrophenyl)-4,10-dimethyl-2,8-diphenyl-2,3,8,9-tetraazadispiro[4.0.4.1]undeca-3,9-diene-1,7-dione] | 46.7 ± 3.78% | most significant | 43 ± 3.46% | 11.0 | 295 nM | 300 ± 90 nM |  | 83180 ± 450 nM
7 | COC(=O)c1ccc(C2[C@@]3(C(=O)N(c4ccccc4)N=C3C)[C@]23C(=O)N(c2ccccc2)N=C3C)cc1 (relative stereo) [4q, (5R*,6R*)-Methyl-4[4,10-dimethyl-2,8-diphenyl-2,3,8,9-tetraazadispiro[4.0.4.1]undeca-3,9-diene-1,7-dione-11-yl]benzoate] | 50.5 ± 2.38% | did not show differences with respect to the control of DMSO | 32.5 ± 2.33% | 14.3 | 277 nM | 280 ± 40 nM | 2.29 ± 2.6% | 109000 ± 2770 nM
8 | CC1=NN(c2ccccc2)C(=O)[C@@]12C(c1ccc(C(F)(F)F)cc1)[C@@]21C(=O)N(c2ccccc2)N=C1C (relative stereo) [4r, (5R*,6R*)-11-(4-Trifluoromethylphenyl)-4,10-dimethyl-2,8-diphenyl-2,3,8,9-tetraazadispiro[4.0.4.1]undeca-3,9-diene-1,7-dione] | 54.7 ± 1.95% |  | 45.8 ± 2.11% | 34.2 | 188 nM | 190 ± 60 nM | 4.74 ± 3.04% | 49800 ± 5510 nM
9 | CC1=NN(c2ccccc2)C(=O)[C@@]12C(c1ccc(OC(F)(F)F)cc1)[C@@]21C(=O)N(c2ccccc2)N=C1C (relative stereo) [4s, (5R*,6R*)-11-(4-Trifluoromethoxyphenyl)-4,10-dimethyl-2,8-diphenyl-2,3,8,9-tetraazadispiro[4.0.4.1]undeca-3,9-diene-1,7-dione] | 49.7 ± 2.11% |  | 9.91 ± 3.37% | 45.3 | 189 nM | 190 ± 70 nM |  | 70300 ± 1900 nM
10 | CC1=NN(c2ccccc2)C(=O)[C@@]12C(c1cccc(F)c1)[C@@]21C(=O)N(c2ccccc2)N=C1C (relative stereo) [4t, (5R*,6R*)-11-(3-Fluorophenyl)-4,10-dimethyl-2,8-diphenyl-2,3,8,9-tetraazadispiro[4.0.4.1]undeca-3,9-diene-1,7-dione] | 13.8 ± 2.87% | did not show differences with respect to the control of DMSO | 31.4 ± 3.65% | 12.3 | 216 nM | 220 ± 50 nM | 5.08 ± 2.84% | 
11 | CSc1ccc(C2[C@]3(C(=O)N(c4ccccc4)N=C3C)[C@@]23C(=O)N(c2ccccc2)N=C3C)cc1 (relative stereo) [4u, (5R*,6R*)-11-(4-Thiomethylphenyl)-4,10-dimethyl-2,8-diphenyl-2,3,8,9-tetraazadispiro[4.0.4.1]undeca-3,9-diene-1,7-dione] | 38.7 ± 3.77% | did not show differences with respect to the control of DMSO | 19.5 ± 2.96% | 22.1 | 417 nM | 420 ± 250 nM | 5.76 ± 3.65% | 
